Test results taken from PMC3715890, “A Cyclic Peptide Inhibitor of HIF-1 Heterodimerization That Inhibits Hypoxia Signaling in Cancer Cells” (Journal of the American Chemical Society, 2013).
Entries after “also recorded” stand apart in the source; their conditions may differ. Blank lines part the entries; values can stand above or below the compound they belong to.

How the values were obtained:
[1] = tested on: HIF-1α/HIF-1β protein–protein interaction; assay: HIF-1 bacterial reverse two-hybrid system (RTHS), SICLOPPS-expressed cyclic peptides, drop-spotting; assay type: cell-based; details: E. coli HIF-1 RTHS, cyclic peptide expressed from SICLOPPS plasmid, 10-fold serial dilutions, compared with the other potential inhibitors
Description: We used our genetically encoded high-throughput screening platform[23]−[25] to identify inhibitors of the HIF-1α/HIF-1β protein–protein interaction. We built and verified the function of a HIF-1 bacterial reverse two-hybrid system (RTHS, for a detailed description see the Supporting Information and Figures S1–S3). The HIF-1 RTHS was used to screen a plasmid-encoded SICLOPPS (split intein circular ligation of peptides and proteins)[26],[27] library of 3.2 million cyclic hexapeptides for HIF-1 dimerization inhibitors.
After the first round of screening, 120 surviving colonies were observed and subjected to several rounds of secondary screening to eliminate false positives and nonselective inhibitors, leaving 12 potential HIF-1 dimerization inhibitors that were ranked by drop-spotting.
The HIF-1 RTHS, associated control RTHS, and SICLOPPS library were constructed as detailed in the Supporting Information. Electrocompetent cells of the HIF-1 RTHS were prepared and transformed with the C+5 SICLOPPS plasmid library. Transformation efficiency, assessed by plating 10-fold serial dilutions of the recovery solution on LB agar supplemented with chloramphenicol (35 μg/mL), was consistently found to be ∼5 × 10^7, thus ensuring adequate coverage of the 3.2 × 10^6 member cyclic peptide library. Transformants were washed with minimal media and plated onto minimal media agar plates supplemented with ampicillin (50 μg/mL), spectinomycin (25 μg/mL), kanamycin (50 μg/mL), 3-AT (7.5 μM), IPTG (100 μM), L-arabinose (6.5 μM), and chloramphenicol (35 μg/mL). The plates were incubated for 2–3 days at 37 °C until individual colonies were visible. Colonies were picked and restreaked onto LB agar plates containing ampicillin (50 μg/mL), spectinomycin (25 μg/mL), and chloramphenicol (35 μg/mL) and incubated overnight at 37 °C.
Surviving colonies from these plates were grown overnight and assessed by drop-spotting 10-fold serial dilutions onto minimal media plates, supplemented with antibiotics, IPTG and 3-AT as above, with and without 6.5 μM L-arabinose. […]

[2] = tested on: U2OS-luc control cell line stably expressing luciferase; assay: Control constitutive luciferase reporter, U2OS-luc; assay type: cell-based, human
Description: Figure S3: Identification of cyclic peptide HIF-1 inhibitors. (A) SICLOPPS expression is induced by arabinose, which processes to give a member of the cyclic peptide library. A dimerization inhibitor would be expected to rescue growth of the HIF-1 RTHS on selective media plates containing IPTG, kanamycin and 3-amino-triazole, and arabinose. (B) The ability of the selected cyclic peptides to […]
HIF-1 RTHS containing the corresponding SICLOPPS plasmid onto selective media. In the absence of arabinose the SICLOPPS split-intein is not produced; the HIF-1 RTHS containing plasmids encoding […]
colonies show survival on selective media plates containing IPTG and arabinose (panel 2). Expressing the 3 selected cyclic peptides from mutant SICLOPPS inteins (H24A, F26A mutations in the C- […]
cyclic form of the peptides and their activity. […]
expressing a constitutive luciferase reporter construct. […]

[3] = tested on: HIF-1 (HIF-dependent luciferase reporter, U2OS-HRE-luc cells); assay: HIF-1-dependent luciferase reporter assay, U2OS-HRE-luc; assay type: cell-based, human
Description: (§1) The ability of P1–P3 to disrupt HIF-1 function in cells was assessed using a HIF-1-dependent luciferase reporter assay.[15],[21] The assay uses human osteosarcoma U2OS cells, stably transfected with a HIF-dependent luciferase reporter construct (U2OS-HRE-luc), where activation of HIF results in an increase in luciferase expression.[15]
(§2) Endogenous HIF-1 luciferase reporter assays were conducted as previously reported in U2OS-HRE-luc[15] and MCF-7 cells.[46] For plasmid-expressed HIF-α luciferase reporter assays, MCF-7 and U2OS cells were transiently transfected with plasmids expressing HIF-1α, HIF-2α, or a blank control (pcDNA3.1-HIF-1α, pcDNA3.1-HIF-2α, or pcDNA3.1), a renilla-encoding control (phRL-TK), and a HIF-dependent firefly luciferase reporter construct (pGL2-TK-HRE), using Transfast (Promega) according to the manufacturer’s instructions. After 24 h, cells were recovered and plated (4000 cells/well) in 96-well plates (Perkin-Elmer) and incubated for 5 h before either hypoxic or aerobic incubation in presence or absence of cyclic peptide inhibitors. Firefly and renilla activities were determined using Dual-Glo Reagent (Promega) according to the manufacturer’s instructions. The luciferase signal was normalized using the corresponding renilla values.
Cells were treated with the stated concentrations of inhibitor (P1, P2, or P3) and incubated in normoxia for 4 h, followed by incubation in a hypoxic environment. All manipulation of cell pellets (e.g., lysis, mRNA, and protein extraction) was conducted in a hypoxic environment.

[4] = tested on: HIF-2 (HIF-dependent luciferase reporter, U2OS cells); assay: HIF-2 luciferase reporter assay, U2OS; assay type: cell-based, human; details: transfected HIF-2α
Description: (§3) In addition, P1 had no effect on VEGF protein levels in hypoxic 786-O cells (Figure 6B). To further probe the effect of P1 on HIF-2, a luciferase reporter assay was developed and used. The assay was derived from the HIF-1 luciferase reporter assay detailed above (Figure 2C and D) and adapted for HIF-2 by replacing the plasmid encoding HIF-1α with the equivalent plasmid encoding HIF-2α. […] P2 and P3 also had no effect on HIF-2 in this assay (Figure S9).
as §2

[5] = tested on: HIF-2 (HIF-dependent luciferase reporter, MCF-7 cells); assay: HIF-2 luciferase reporter assay, MCF-7; assay type: cell-based; details: MCF-7, transfected HIF-2α
Description: as §3, §2

[6] = tested on: HIF-1 (HIF-dependent luciferase reporter, MCF-7 breast cancer cells); assay: HIF-1-dependent luciferase reporter assay, MCF-7; assay type: cell-based; details: MCF-7, 100 μM
Description: as §1
as §2, with “values. […]” for “values.”

His-HIF-1α1–350 = assay: Fluorescent binding assay, HIF-1α; details: fluorescence at 680 nm, Ni2+-coated plate, 5 µL of 100 µM solution in 95 µL buffer, 1 hour, room temperature
PAS-B domain of HIF-1α = target: T1, PAS-B domain of HIF-1α (Homo sapiens, UniProt Q16665); assay: Fluorescent binding assay, PAS-B; details: fluorescence at 680 nm, Ni2+-coated plate
T1 construct: Per-ARNT-Sim-B (PAS-B, amino acids 235–350) domains; His (N); made in house; host or cells: E. coli BL21(DE3)
T1 sequence (Q16665 235-350): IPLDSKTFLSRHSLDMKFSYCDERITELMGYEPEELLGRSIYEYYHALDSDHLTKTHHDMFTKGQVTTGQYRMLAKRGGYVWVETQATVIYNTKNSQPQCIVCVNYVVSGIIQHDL

bHLH domain of HIF-1α = assay: Fluorescent binding assay, bHLH; details: fluorescence at 680 nm, Ni2+-coated plate
PAS-A domain of HIF-1α = assay: Fluorescent binding assay, PAS-A; details: fluorescence at 680 nm, Ni2+-coated plate
His-HIF-2α1–351 = assay: Fluorescent binding assay, HIF-2α; details: fluorescence at 680 nm, Ni2+-coated plate, 5 µL of 100 µM solution in 95 µL buffer, 1 hour, room temperature
MCF-7 cells = assay: CyQUANT cell proliferation assay, MCF-7; assay type: cell-based; details: 1 μM, positive control, 72 h
Description: Sulforhodamine B cytotoxicity assay […]
incubated in hypoxia for 24h.
O.D. value of the experimental set.
CyQUANT cell proliferation assay
The cells were incubated for 5 hours and then treated with Tamoxifen or P1. After 24, 48 or 72 hours, the media was […]
C35006) following the manufacturers instructions. Fluorescence measurements were […]
Workman, P.; Ashcroft, M. Cancer Res 2005, 65, 4918.

Compound: cyclo-CLLRMY (head to tail)
activity ranking by drop-spotting in HIF-1 RTHS [1]: significantly more active than the others

Compound: Tat-cyclo-CLLRMY (head to tail) [P3, cyclo-CLLRMY tagged with Tat peptide via a disulfide bond]
effect on constitutive luciferase signal [2]: do not affect | effect on luciferase reporter in hypoxia ([3]; U2OS-HRE-luc, hypoxia (1% O2)): did not show an effect | effect on luciferase reporter in normoxia (basal) ([3]; U2OS-HRE-luc, normoxia): did not show an effect | effect on HIF-2 luciferase reporter signal [4]: do not affect | effect on HIF-2 luciferase reporter signal [5]: do not affect

Compound: CGRKKRRQRRRPPQ [Tat-tag, Tat-tag alone, control, reference compound]
effect on luciferase signal, Tat-tag alone [6]: did not affect the luciferase signal | effect on luciferase signal, Tat-tag alone ([3]; U2OS, 100 μM): did not affect the luciferase signal

Compound: cyclo-CRLMVL (head to tail)
activity ranking by drop-spotting in HIF-1 RTHS [1]: significantly more active than the others

Compound: cyclo-CLLFVY (head to tail)
activity ranking by drop-spotting in HIF-1 RTHS [1]: significantly more active than the others

binding to His-HIF-1α1–350 (His-HIF-1α1–350): observed binding | binding to PAS-B domain of HIF-1α (PAS-B domain of HIF-1α): binds the PAS-B domain of HIF-1α | binding to bHLH domain of HIF-1α (bHLH domain of HIF-1α): close to background level | binding to PAS-A domain of HIF-1α (PAS-A domain of HIF-1α): close to background level | binding to His-HIF-2α1–351 (His-HIF-2α1–351): close to background levels
Compound: Megastokes dye 673-triazole-(cyclo-ALLFVY) (head to tail) [fluorescent derivative of cyclo-CLLFVY, propargylalanine derivative of cyclo-CLLFVY click-linked to azide-Megastoke dye 673]

Compound: CC/C(=C(\c1ccc(O)cc1)c1ccc(OCCN(C)C)cc1)c1ccccc1 [4-hydroxytamoxifen, reference compound]
proliferation of MCF-7 cells (MCF-7 cells): inhibited proliferation; also recorded: arrests cell division
